The subject of series [1] is bone marrow progenitors. As to the kind of experiment: Carboplatin-induced cytotoxicity in bone marrow (EdU). It is filed as in vivo, FVB/n mice. Conditions: 150 mg/kg oral gavage plus 90 mg/kg carboplatin i.p., 24 hours. As for the experimental part: To assess the effect of transient CDK4/6 inhibition by Compound GG on carboplatin-induced cytotoxicity in the bone marrow, FVB/n mice (n=3 per group) were treated with vehicle control, 90 mg/kg carboplatin by intraperitoneal injection, or 150 mg/kg Compound GG by oral gavage plus 90 mg/kg carboplatin by intraperitoneal injection. 24 hours after treatment bone marrow was harvested and the percent of cycling bone marrow progenitors was measured by EdU incorporation as explained earlier. […] EdU incorporation in control animals was normalized to 100% and compared to EdU incorporation for bone marrow from carboplatin treated animals or carboplatin and Compound GG treated animals.

Series [2] addresses CDK4/CyclinD1 (Homo sapiens (Human), UniProt P11802). As to the kind of experiment: CDK4/CyclinD1 kinase assay (Nanosyn, Caliper microfluidic). It counts as biochemical. To be noted: read-out: CDK4/CycD1 IC50.
Series [3] concerns HSPCs (bone marrow). As to the kind of experiment: HSPC proliferation in bone marrow by EdU incorporation after oral gavage. It counts as in vivo, mice. The protocol: Mice were then sacrificed at the indicated times (0, 12, 24, 36, or 48 hours following compound administration), and bone marrow was harvested (n=3 mice per time point), as previously described (Johnson et al. J. Clin. Invest. (2010) 120(7), 2528-2536). Four hours before the bone marrow was harvested, mice were treated with 100 μg of EdU by intraperitoneal injection (Invitrogen). Bone marrow mononuclear cells were harvested and immunophenotyped using previously described methods and percent EdU positive cells were then determined (Johnson et al. J. Clin. Invest. (2010) 120(7), 2528-2536). In brief, HSPCs were identified by expression of lineage markers (Lin-), Sca1 (S+), and c-Kit (K+).
Four hours before animals were sacrificed and the bone marrow was harvested, mice were treated with 100 μg of EdU by intraperitoneal injection. Three mice per group were sacrificed at 12 hours and the remaining three animals per group were sacrificed at 24 hours. Results are shown in FIG. 6A as the ratio of EdU positive cells for treated animals at 12 or 24 hour time points compared to control.
Further experiments were completed with Compound T examining dose response and longer periods of compound treatment. […] […].
Both compounds were administered at 150 mg/kg by oral gavage. One hour prior to harvesting bone marrow, EdU was IP injected to label cycling cells. Bone marrow was harvested at 12, 24, 36, and 48 hours after compound treatment and the percentage of EdU positive HSPC cells was determined at each time point.

Series [4] is described as follows: Mouse pharmacokinetics (oral gavage / intravenous). It counts as in vivo, mice. To be noted: mouse.
Series [5] addresses CDK2/CyclinE (Homo sapiens (Human), UniProt P24941). As to the kind of experiment: CDK2/CyclinE kinase assay (Nanosyn, Caliper microfluidic). It is filed as biochemical. Conditions: for IC50: read-out: CDK2/CycE IC50.
Series [6] relates to RB-negative SCLC cell lines (H69, H82, H209, H345, NCI417, or SHP-77). As to the kind of experiment: EdU proliferation, RB-negative SCLC cell lines. Conditions: 24 hours.
In series [7] the target is CDK6/CyclinD3 (Homo sapiens (Human), UniProt Q00534). As to the kind of experiment: CDK6/CyclinD3 kinase assay (Nanosyn, Caliper microfluidic). It is filed as biochemical. Conditions: Table 3; read-out: CDK6/CycD3 IC50.
Series [8] deals with RB-intact, Cdk4/6-dependent cell line (WM2664 or tHS68). As to the kind of experiment: EdU proliferation, RB-intact Cdk4/6-dependent cell line. Conditions: 24 hours.
Series [9] has as its target CDK2/CyclinA (Homo sapiens (Human), UniProt P24941). As to the kind of experiment: CDK2/CyclinA kinase assay (Nanosyn, Caliper microfluidic). To be noted: for IC50: read-out: CDK2/CycA IC50. It counts as biochemical. In short, it runs like this:
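Phosphorylation was read by Caliper microfluidic detection. Compounds ran as 12-point dose-responses in singlicate, with staurosporine as reference.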

For series [10] the following is noted: mice; cited from earlier work.
Series [11] is described as follows: Metabolic stability in liver microsomes. It is filed as in vitro ADME, human, dog, rat, monkey, and mouse. Conditions: Sprague-Dawley (rat), liver microsomes, pH 7.4; each of the species tested (human, monkey, dog, rat, mouse), 1 uM. The protocol:
Human, mouse, and dog liver microsomes were purchased from Xenotech, and Sprague-Dawley rat liver microsomes were prepared by Absorption Systems. The reaction mixture comprising 0.5 mg/mL of liver microsomes, 100 mM of potassium phosphate, pH 7.4, 5 mM of magnesium chloride, and 1 uM of test compound was prepared. The test compound was added into the reaction mixture at a final concentration of 1 uM. An aliquot of the reaction mixture (without cofactor) was incubated in shaking water bath at 37 deg. C. for 3 minutes. The control compound, testosterone, was run simultaneously with the test compound in a separate reaction. The reaction was initiated by the addition of cofactor (NADPH), and the mixture was then incubated in a shaking water bath at 37 deg. C. Aliquots (100 μL) were withdrawn at 0, 10, 20, 30, and 60 minutes for the test compound and 0, 10, 30, and 60 minutes for testosterone. […] Test compound samples were analyzed using the Orbitrap high resolution mass spectrometer to quantify the disappearance of parent test compound and detect the appearance of metabolites. […] Half-lives were calculated using GraphPad software, fitting to a single-phase exponential decay equation.
When calculated half-life was longer than the duration of the experiment, the half-life was expressed as >the longest incubation time. The calculated half-life is also listed in parentheses. […]

Series [12] deals with human renal proximal tubule epithelial cells (Rb-positive). As to the kind of experiment: Cellular wash-out experiment, renal proximal tubule epithelial cells. It is filed as cell-based. To be noted: 300 nM, compared to compounds T, Q, GG, or U. The protocol: Alternatively, the same experiment was done using normal Renal Proximal Tubule Epithelial Cells (Rb-positive) obtained from American Type Culture Collection (ATCC, Manassas, Va.). Cells were grown in an incubator at 37° C. in a humidified atmosphere of 5% CO2 in Renal Epithelial Cell Basal Media (ATCC) supplemented with Renal Epithelial Cell Growth Kit (ATCC) in 37° C. humidified incubator.
Upon harvesting cells, samples were stained with propidium iodide staining solution and samples run on Dako Cyan Flow Cytometer. The fraction of cells in G0-G1 DNA cell cycle versus the fraction in S-phase DNA cell cycle was determined using FlowJo 7.2 0.2 analysis.

Series [13] relates to HSPC (LKS+) and myeloid progenitor cells (LKS-). To be noted: single oral dose 150 mg/kg, mice; cited from earlier work.
For series [14], the system named is HS68 cells (human fibroblast, Rb-positive). As to the kind of experiment: Cellular wash-out experiment, HS68. It counts as cell-based. As for the experimental part:
EMBO J, 21(12)2936-2945 (2002) and Ruas et al. Mol Cell Biol, 27(12)-4273-4282 (2007)). […] On day 3, one set of treated cell samples were harvested in triplicate (0 Hour sample). Remaining cells were washed two times in PBS-CMF and returned to culture media lacking test compound. Sets of samples were harvested in triplicate at 24, 40, and 48 hours. Upon harvesting cells, samples were stained with propidium iodide staining solution and samples run on Dako Cyan Flow Cytometer. The fraction of cells in G0-G1 DNA cell cycle versus the fraction in S-phase DNA cell cycle was determined using FlowJo 7.2 0.2 analysis.

The conditions of series [15]: Grade 3/4 neutropenia and leukopenia; cited from earlier work.
For series [16] the following is noted: humans; cited from earlier work.
Series [17] is described as follows: PD0332991 pharmacokinetics / HSPC arrest in humans. It is filed as in vivo. The protocol:
When calculated half-life was longer than the duration of the experiment, the half-life was expressed as >the longest incubation time. The calculated half-life is also listed in parentheses. […] The timely resumption of cellular proliferation is necessary for tissue repair, and therefore an overly long period of arrest is undesirable in healthy cells such as HSPCs. The characteristics of a CDK4/6 inhibitor that dictate its arresting duration are its pharmacokinetic (PK) and enzymatic half-lives. Once initiated, a G1-arrest in vivo will be maintained as long as circulating compound remains at an inhibitory level, and as long as the compound engages the enzyme. […] […]. […] […]. These observations may explain the severe granulocytopenia seen with PD0332991 in the clinic.

Like-named read-outs stand apart in the source and are kept apart here.

Chain of CDK4/CyclinD1 (P11802 whole entry, species assumed): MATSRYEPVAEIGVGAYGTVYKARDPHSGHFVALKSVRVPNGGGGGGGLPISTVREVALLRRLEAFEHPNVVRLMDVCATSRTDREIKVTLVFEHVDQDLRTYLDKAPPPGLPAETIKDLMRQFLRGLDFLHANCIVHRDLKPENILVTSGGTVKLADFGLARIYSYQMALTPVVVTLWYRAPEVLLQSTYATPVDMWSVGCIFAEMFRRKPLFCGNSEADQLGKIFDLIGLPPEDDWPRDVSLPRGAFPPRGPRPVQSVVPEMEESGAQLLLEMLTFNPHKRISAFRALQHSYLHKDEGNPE
Chain of CDK4/CyclinD1 (P24385 whole entry partner, species assumed): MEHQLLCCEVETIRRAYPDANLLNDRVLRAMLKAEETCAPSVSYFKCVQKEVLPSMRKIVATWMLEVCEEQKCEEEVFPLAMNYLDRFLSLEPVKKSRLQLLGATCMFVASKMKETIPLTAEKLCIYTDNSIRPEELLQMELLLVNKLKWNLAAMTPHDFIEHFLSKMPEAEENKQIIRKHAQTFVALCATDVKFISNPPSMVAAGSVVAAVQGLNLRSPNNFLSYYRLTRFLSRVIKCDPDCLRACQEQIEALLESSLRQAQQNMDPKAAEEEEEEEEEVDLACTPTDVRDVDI
Chain of CDK6/CyclinD3 (Q00534 whole entry, species assumed): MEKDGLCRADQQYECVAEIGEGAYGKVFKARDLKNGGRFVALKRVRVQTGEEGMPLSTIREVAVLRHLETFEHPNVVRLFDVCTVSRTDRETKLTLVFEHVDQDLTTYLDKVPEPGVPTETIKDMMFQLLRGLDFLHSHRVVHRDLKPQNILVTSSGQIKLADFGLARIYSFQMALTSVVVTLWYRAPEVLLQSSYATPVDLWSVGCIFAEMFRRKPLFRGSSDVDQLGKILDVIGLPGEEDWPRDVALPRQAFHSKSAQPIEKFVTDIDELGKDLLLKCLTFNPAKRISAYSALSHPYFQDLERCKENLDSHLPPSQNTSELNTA
Chain of CDK6/CyclinD3 (P30281 whole entry partner, species assumed): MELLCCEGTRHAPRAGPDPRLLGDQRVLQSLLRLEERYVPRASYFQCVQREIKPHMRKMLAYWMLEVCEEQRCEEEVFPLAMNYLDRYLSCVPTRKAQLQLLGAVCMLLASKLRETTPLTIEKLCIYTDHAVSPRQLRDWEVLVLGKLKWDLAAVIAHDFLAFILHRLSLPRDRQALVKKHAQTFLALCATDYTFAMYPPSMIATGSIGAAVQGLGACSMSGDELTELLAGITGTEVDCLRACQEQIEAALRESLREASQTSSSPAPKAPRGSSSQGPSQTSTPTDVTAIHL

For `CC(C)N1CCN(c2ccc(Nc3ncc4cc5n(c4n3)C3(CCCCC3)CNC5=O)nc2)CC1` [Compound GG, 2′-((5-(4-isopropylpiperazin-1-yl)pyridin-2-yl)amino)-7′,8′-dihydro-6′H-spiro[cyclohexane-1,9′-pyrazino[1′,2′:1,5]pyrrolo[2,3-d]pyrimidin]-6′-one], in [1], the “protection of cycling bone marrow progenitors (EdU)” value was “significant protection of bone marrow progenitors”. The IC50 in series [2] (Table 2) stood at 1 nM; in series [2] (Table 3) it was 1.06 nM; in [5] (Table 2), 3580 nM; in series [5] (Table 3), 3580 nM; in [7] it was 4.7 nM; in series [9] (Table 2) it was 1510 nM. In addition, the IC50 in [9] (Table 3) is 1510 nM. The “EdU incorporation into HSPCs at 12 and 24 hours compared to control” value in series [3] (150 mg/kg oral gavage) is reported as “reduction in EdU incorporation at 12 hours which was starting to return to normal at 24 hours”. Besides, the “G1-arrest of bone marrow stem cells (HSPC)” value in [3] (oral gavage, mice) is “dose dependent, transient, and reversible G1-arrest”. Further, in [4], the F is 52%. The half-life was 3.5 h in series [4] (plasma, po, 30 mg/kg, 30 mg/kg oral gavage, read-out: t1/2 p.o. (converted)) and 3 to 5 h in series [4] (plasma, po, 30 mg/kg, read-out: plasma half-life following oral administration). Moreover, the bioavailability in [4] (plasma, po, 30 mg/kg, read-out: oral bioavailability (F (%))) was 52 to 80%. Further, in [4] (plasma, iv, 10 mg/kg i.v.), the AUC(0-inf) was found to be 1.1 µM·h. Moreover, in [4] (plasma, iv, 10 mg/kg i.v.), the clearance came to 82 mL/min/kg. Moreover, the Vd in [4] (plasma, iv, 10 mg/kg i.v., read-out: Vss) turned out to be 7.5 L/kg. For the same compound, the AUC in [4] (plasma, 30 mg/kg oral gavage) is 1.9 µM·h. The same compound had a Cmax in [4] (plasma, 30 mg/kg oral gavage) of 1900 nM. In addition, the time to peak (Tmax) in series [4] (plasma, 30 mg/kg oral gavage) was 1 h. In addition, the “Fold Selectivity CDK2/CDK4” value in [5] (CDK2/CycE IC50 divided by CDK4/CycD1 IC50) turned out to be 3377. Besides, in [5] (Table 2), the “Fold Selectivity (CDK2/CycE/CDK4)” value turned out to be 3377. Further, the “effect on proliferation (EdU, percent of cells in S-phase)” value is reported as “does not affect the growth of the Rb-negative cell lines” in [6] and “inhibits the Rb-positive cell line (tHS68)” in series [8]. Besides, the “Fold Selectivity (CDK2/CycA/CDK4)” value in series [9] (Table 2) is recorded as 1425.

For `CC(=O)c1c(C)c2cnc(Nc3ccc(N4CCNCC4)cn3)nc2n(C2CCCC2)c1=O` [PD0332991, 6-acetyl-8-cyclopentyl-5-methyl-2-(5-piperazin-1-yl-pyridin-2-ylammino)-8H-pyrido-[2,3-d]-pyrimidin-7-one], in [10], the PK half-life is 6 h. Further, the half-life at 1 uM in series [11] was over 1 h. Also, the “return to baseline levels of cell division after wash out” value in series [12] was “took significantly longer to return to baseline levels of cell division”. Besides, in series [13], the “duration of sustained reduction in HSPC and myeloid progenitor EdU incorporation” value is “greater than 36 hours”; the “time post oral dosing at which HSPC and myeloid progenitor cells return to baseline cell division” value is 48 h. Further, the “effect on proliferation (EdU, percent of cells in S-phase)” value in series [6] is recorded as “does not affect the growth of the Rb-negative small cell lung cancer cell lines”. Moreover, the “time post wash out for cells to return to normal baseline cell division” value in [14] (300 nM, HS68 cells) is “greater than 48 hours”. Besides, the “duration of cell cycle arrest in human cells after compound is removed (wash-out)” value in [14] (in vitro wash-out experiment) was “more than forty hours”. In series [15], the “patients requiring a dose interruption” value was 71% and the “patients requiring a dose reduction” value is listed as 35%. Further, the PK half-life in series [16] was 27 h. Also, the “effect on proliferation (EdU, percent of cells in S-phase)” value in series [8] is given as “inhibits the Rb-positive cell line (WM2664)”. For the same compound, in series [17], the “duration of cell cycle arrest of HSPC after a single administration” value is on record as “approximately one week”.

The values are drawn from patent publication US9464092B2, “Transient protection of normal cells during chemotherapy” (G1 Therapeutics, Inc., priority 2013, dated 2016).
